Assays:
[1] = molecular target: T1, human B1R receptor (hB1R) (Homo sapiens, UniProt P46663); assay: FLIPR Ca2+ assay on human bradykinin 1 receptor (CHO K1 hB1R cells); format: cell-based; conditions: test substance 10 μM; CHO K1 cells with human B1R gene; agonist Lys-Des-Arg9-bradykinin 0.5 nM; compared to maximum achievable inhibition
T1 construct: host or cells: CHO K1 cells
T1 sequence (P46663 1-353): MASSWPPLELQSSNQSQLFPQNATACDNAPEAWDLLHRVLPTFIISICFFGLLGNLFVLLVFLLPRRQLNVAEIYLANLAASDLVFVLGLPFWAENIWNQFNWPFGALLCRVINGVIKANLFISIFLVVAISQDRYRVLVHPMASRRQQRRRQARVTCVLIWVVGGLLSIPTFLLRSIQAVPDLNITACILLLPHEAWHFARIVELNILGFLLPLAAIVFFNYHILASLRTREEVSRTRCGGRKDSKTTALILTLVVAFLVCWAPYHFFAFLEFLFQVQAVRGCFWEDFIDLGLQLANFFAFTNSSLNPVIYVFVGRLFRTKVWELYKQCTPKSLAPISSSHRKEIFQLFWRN
Method: (§1) The agonistic or antagonistic action of compounds can be quantified on the bradykinin 1 receptor (B1R) of humans and rats with ectopically expressing cell lines (CHO K1 cells) and with the aid of a Ca^2+-sensitive dye (Fluo-4) in the fluorescent imaging plate reader (FLIPR). The figure in percent activation refers to the Ca^2+ signal after addition of Lys-Des-Arg^9-bradykinin (0.5 nM) and Des-Arg^9-bradykinin (100 nM). Antagonists result in a suppression of the Ca^2+ inflow after the addition of the agonist. Percent inhibition values are given in comparison to the maximum achievable inhibition.
(§2) The agonistic or antagonistic action of substances can be determined on the bradykinin 1 receptor (B1R) of humans and rats by means of the following assay.
(§3) According to this assay the Ca^2+ inflow through the channel is quantified by means of a Ca^2+-sensitive dye (Fluo-4 type, Molecular Probes Europe BV, Leiden, Netherlands), in a Fluorescent Imaging Plate Reader (FLIPR, Molecular Devices, Sunnyvale, USA). Method:
(§4) Chinese hamster ovary cells (CHO K1 cells) are used, which are stably transfected with the human B1R gene (hB1R cells, Euroscreen s.a., Gosselies, Belgium), or with the B1R gene of rats (rB1R cells, Axxam, Milan, Italy). For functional investigations these cells are plated out on black 96-well plates with a clear floor (BD Biosciences, Heidelberg, Germany) in a density of 20,000/25,000 cells/well. The cells are incubated overnight with 10 vol. % FBS (foetal bovine serum, Gibco Invitrogen GmbH, Karlsruhe, Germany) at 37° C. and 5% CO2 in a culture medium (hB1R cells: Nutrient Mixture Ham's F12, Gibco Invitrogen GmbH, Karlsruhe, Germany; rB1R cells: D-MEM/F12, Gibco Invitrogen GmbH, Karlsruhe, Germany). The following day the cells are charged for 60 minutes at 37° C. with 2.13 μM Fluo-4 (Molecular Probes Europe BV, Leiden, Netherlands) in HBSS buffer (Hank's buffered saline solution, Gibco Invitrogen GmbH, Karlsruhe, Germany) together with […] (Sigma-Aldrich, Taufkirchen, Germany) and 10 mM HEPES (Sigma-Aldrich, Taufkirchen, Germany).
(§5) The plates are then washed twice with HBSS buffer and HBSS buffer is added which additionally contains 0.1% BSA (bovine serum albumin; Sigma-Aldrich, Taufkirchen, Germany), 5.6 mM glucose and 0.05% gelatin (Merck KGaA, Darmstadt, Germany). After further incubation for 20 minutes at room temperature the plates are used for the Ca^2+ measurement in the FLIPR. The Ca^2+-dependent fluorescence is measured both before and after the addition of substances (λex=488 nm, λem=540 nm). The quantification is carried out by measuring the highest fluorescence intensity (FC, fluorescence counts) over time.
(§6) The FLIPR protocol consists of two substance additions. First of all test substances (10 μM) are pipetted onto the cells and the Ca^2+ inflow is compared with the control (hB1R: Lys-Des-Arg9-bradykinin 0.5 nM; rB1R: Des-Arg9-bradykinin 100 nM). This gives the result in percent activation referred to the Ca^2+ signal after addition of Lys-Des-Arg9-bradykinin (0.5 nM), bzw. Des-Arg9-bradykinin (100 nM). After 10 minutes' incubation 0.5 nM Lys-Des-Arg9-bradykinin (hB1R) and 100 nM Des-Arg^9-bradykinin (rB1R) are applied and the inflow of Ca^2+ is likewise determined. Antagonists lead to a suppression of the Ca^2+ inflow. The percent inhibition compared to the maximum achievable inhibition is calculated. The compounds show a good activity on both human and rat receptors.
(§7) The agonistic and antagonistic action of the compounds according to the invention on the bradykinin 1 receptor (B1R) of humans and rats were determined as described above. Antagonists lead to a suppression of the Ca^2+ inflow. The % inhibition compared to the maximum achievable inhibition was calculated.

[2] = molecular target: T2, B1R receptor of rats (rB1R) (Rattus norvegicus, UniProt P97583); assay: FLIPR Ca2+ assay on rat bradykinin 1 receptor (CHO K1 rB1R cells); format: cell-based; conditions: test substance 10 μM; CHO K1 cells with B1R gene of rats; agonist Des-Arg9-bradykinin 100 nM; compared to maximum achievable inhibition
T2 construct: host or cells: CHO K1 cells
T2 sequence (P97583 1-337): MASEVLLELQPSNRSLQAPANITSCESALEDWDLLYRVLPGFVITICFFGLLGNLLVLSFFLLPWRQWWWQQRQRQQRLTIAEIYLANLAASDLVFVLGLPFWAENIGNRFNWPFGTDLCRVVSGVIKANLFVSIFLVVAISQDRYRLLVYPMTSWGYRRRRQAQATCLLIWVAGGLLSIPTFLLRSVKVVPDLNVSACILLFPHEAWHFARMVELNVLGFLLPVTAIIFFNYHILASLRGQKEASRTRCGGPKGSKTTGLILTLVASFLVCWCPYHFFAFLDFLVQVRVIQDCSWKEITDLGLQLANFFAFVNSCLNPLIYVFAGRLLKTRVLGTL
Method: as §1, §2, §3, §4, §5, §6, §7

| Compound | inhibition at 10 µM [1] [%] | inhibition at 10 µM [2] [%] |
| --- | --- | --- |
| COc1c(C)cc(S(=O)(=O)N(C)CCOCC(=O)N2CCn3cccc3C2c2ccc(C(F)(F)F)cc2F)c(C)c1C (stereo not drawn) [Example 39, N-(2-(2-(1-(2-fluoro-4-(trifluoromethyl)phenyl)-3,4-dihydropyrrolo[1,2-a]pyrazin-2(1H)-yl)-2-oxoethoxy)ethyl)-4-methoxy-N,2,3,5-tetramethyl-benzenesulfonamide] | 35 | 80 |
| COc1ccc(C2c3cccn3CCN2C(=O)COCCN(CC(C)C)S(=O)(=O)c2c(C)cc(OC)c(C)c2C)cc1 (stereo not drawn) [Example 22, N-isobutyl-4-methoxy-N-(2-(2-(1-(4-methoxyphenyl)-3,4-dihydropyrrolo[1,2-a]pyrazin-2(1H)-yl)-2-oxoethoxy)ethyl)-2,3,6-trimethylbenzenesulfonamide] | 53 | 97 |
| Cc1cc(C)c(S(=O)(=O)N(C)CCOCC(=O)N2CCn3cccc3C2c2ccc(Cl)nc2)c(C)c1 (stereo not drawn) [Example 68, N-(2-(2-(1-(6-chloropyridin-3-yl)-3,4-dihydropyrrolo[1,2-a]pyrazin-2(1H)-yl)-2-oxoethoxy)ethyl)-N,2,4,6-tetramethylbenzenesulfonamide] | 101 | 100 |
| Cc1cc(C)c(S(=O)(=O)N(C)CCOCC(=O)N2CCn3cccc3C2c2cccc(F)c2)c(C)c1 (stereo not drawn) [Example 73, N-(2-(2-(1-(3-fluorophenyl)-3,4-dihydropyrrolo[1,2-a]pyrazin-2(1H)-yl)-2-oxoethoxy)ethyl)-N,2,4,6-tetramethylbenzenesulfonamide] | 102 | 99 |
| COc1cc(C)c(S(=O)(=O)N(C)CCOCC(=O)N2CCn3cccc3C2c2ccc(F)c(F)c2)c(C)c1 (stereo not drawn) [Example 57, N-(2-(2-(1-(3,4-difluorophenyl)-3,4-dihydropyrrolo[1,2-a]pyrazin-2(1H)-yl)-2-oxoethoxy)ethyl)-4-methoxy-N,2,6-trimethylbenzenesulfonamide] | 102 | 99 |
| Cc1cc(C)c(S(=O)(=O)N(C)CCOCC(=O)N2CCn3cccc3C2c2ccc(C(F)(F)F)cc2F)c(C)c1 (stereo not drawn) [Example 77, N-(2-(2-(1-(2-fluoro-4-(trifluoromethyl)phenyl)-3,4-dihydropyrrolo[1,2-a]pyrazin-2(1H)-yl)-2-oxoethoxy)ethyl)-N,2,4,6-tetramethylbenzenesulfonamide] | 71 | 53 |

More lines, now with the values ahead:

| inhibition at 10 µM [1] [%] | inhibition at 10 µM [2] [%] | Compound |
| --- | --- | --- |
| 104 | 102 | COc1cc(C)c(S(=O)(=O)N(CCOCC(=O)N2CCn3c(CN(C)C)ccc3C2c2cccs2)Cc2ccccc2)c(C)c1 (stereo not drawn) [Example 130, N-benzyl-N-(2-(2-(6-((dimethylamino)methyl)-1-(thiophen-2-yl)-3,4-dihydropyrrolo[1,2-a]pyrazin-2(1H)-yl)-2-oxoethoxy)ethyl)-4-methoxy-2,6-dimethyl-benzenesulfonamide] |
| 103 | 103 | COc1cc(C)c(S(=O)(=O)N(CCOCC(=O)N2CCn3c(CN(C)C)ccc3C2c2ccccc2)CC(C)C)c(C)c1C (stereo not drawn) [Example 91, N-(2-(2-(6-((dimethylamino)methyl)-1-phenyl-3,4-dihydropyrrolo[1,2-a]pyrazin-2(1H)-yl)-2-oxoethoxy)ethyl)-N-isobutyl-4-methoxy-2,3,6-trimethylbenzene-sulfonamide] |
| 102 | 101 | CCC1c2ccc(CN(C)C)n2CCN1C(=O)COCCN(CC(C)C)S(=O)(=O)c1c(C)cc(OC)c(C)c1C (stereo not drawn) [Example 99, N-(2-(2-(6-((dimethylamino)methyl)-1-ethyl-3,4-dihydropyrrolo[1,2-a]pyrazin-2(1H)-yl)-2-oxoethoxy)ethyl)-N-isobutyl-4-methoxy-2,3,6-trimethylbenzene-sulfonamide] |
| 103 | 93 | CCC1c2ccc(CN(C)C)n2CCN1C(=O)COCCN(C)S(=O)(=O)c1cc(C)c(OC)c(C)c1C (stereo not drawn) [Example 113, N-(2-(2-(6-((dimethylamino)methyl)-1-ethyl-3,4-dihydropyrrolo[1,2-a]pyrazin-2(1H)-yl)-2-oxoethoxy)ethyl)-4-methoxy-N,2,3,5-tetramethylbenzenesulfonamide] |
| 101 | 102 | COc1cc(C)c(S(=O)(=O)N(CCOCC(=O)N2CCn3c(CN(C)C)ccc3C2c2cccs2)Cc2ccccc2)c(C)c1C (stereo not drawn) [Example 121, N-benzyl-N-(2-(2-(6-((dimethylamino)methyl)-1-(thiophen-2-yl)-3,4-dihydropyrrolo[1,2-a]pyrazin-2(1H)-yl)-2-oxoethoxy)ethyl)-4-methoxy-2,3,6-trimethylbenzene-sulfonamide] |
| 103 | 102 | COc1cc(C)c(S(=O)(=O)N(CCOCC(=O)N2CCn3c(CN4CCCCC4)ccc3C2c2ccccc2)CC(C)C)c(C)c1C (stereo not drawn) [Example 93, N-isobutyl-4-methoxy-2,3,6-trimethyl-N-(2-(2-oxo-2-(1-phenyl-6-(piperidin-1-ylmethyl)-3,4-dihydropyrrolo[1,2-a]pyrazin-2(1H)-yl)ethoxy)ethyl)benzene-sulfonamide] |
| 102 | 103 | COc1cc(C)c(S(=O)(=O)N(C)CCOCC(=O)N2CCn3c(CN(C)C)ccc3C2Cc2ccccc2)c(C)c1C (stereo not drawn) [Example 151, N-(2-(2-(1-benzyl-6-((dimethylamino)methyl)-3,4-dihydropyrrolo[1,2-a]pyrazin-2(1H)-yl)-2-oxoethoxy)ethyl)-4-methoxy-N,2,3,6-tetramethylbenzene-sulfonamide] |
| 55 | 57 | O=C(CC(NS(=O)(=O)c1ccc2ccccc2c1)c1ccccc1)N1CCn2c(ccc2-c2ccncc2)C1 (stereo not drawn) [Example 168, N-(3-Oxo-1-phenyl-3-(6-(pyridin-4-yl)-3,4-dihydropyrrolo[1,2-a]pyrazin-2(1H)-yl)propyl)naphthalene-2-sulfonamide] |
| 102 | 101 | COc1c(C)cc(S(=O)(=O)N(C)CCOCC(=O)N2CCn3c(CN(C)C)ccc3C2Cc2ccccc2)c(C)c1C (stereo not drawn) [Example 109, N-(2-(2-(1-benzyl-6-((dimethylamino)methyl)-3,4-dihydropyrrolo[1,2-a]pyrazin-2(1H)-yl)-2-oxoethoxy)ethyl)-4-methoxy-N,2,3,5-tetramethylbenzene-sulfonamide] |

Reference: patent US8263598B2, “Substituted sulfonamide compounds” (Gruenenthal GmbH, priority 2008, dated 2012)
